Like-named read-outs stand apart in the source and are kept apart here. Non-standard residues stand in square brackets, D forms with d. Residues, ends and D or L forms follow the SMILES beside them. dTrp(2-Me) = Cc1[nH]c2ccccc2c1C[C@@H](N)C(=O)O
Columns and labels:
[1] = test system: jejunal segment; experiment: Blood-to-lumen jejunal 51Cr-EDTA clearance (CLCr-EDTA) during SPIP
Method: (§1) At the SPIP experiment, the abdomen was opened along the midline and a jejunal segment of 10–15 cm was cannulated, covered with polyethylene wrap, and placed outside the abdomen. The bile duct was cannulated to avoid pancreaticobiliary secretion into the duodenum. […] During the first 30 min following surgery, each intestinal segment was single-passed perfused with 37 °C phosphate buffered saline (6 mM, pH 6.5 or 7.4). […] The length of the intestinal segment was measured after the jejunal cannulation as was the wet tissue weight of the segment after the experiment. The perfusion rate was at all times 0.2 mL/min (peristaltic pump, Gilson Minipuls 3, Le Bel, France).
Luminal perfusates and blood plasma at 0 and 135 min were analyzed for ^51Cr activity (cpm) in a gamma counter (1282 Compugamma CS, Pharmacia AB, Uppsala, Sweden). A linear regression analysis of the plasma samples was made to obtain a corresponding plasma value for each perfusate sample. […] CLCr-EDTA was determined during the last 45 min for the control solution and during the last 60 min for the test solutions (the first 15 min in each period was for equilibration). […]
(§2) Peff and CLCr-EDTA values, are expressed as the mean ± standard deviation (SD) or standard error of the mean (SEM). […]

[2] = test system: rat intestine; settings: cited from earlier work; for effect on permeation of small model drugs: caprate at 2 and 5 mg/mL
[3] = test system: jejunal segment; experiment: Single-pass intestinal perfusion (SPIP), jejunal lumen-to-blood effective permeability (Peff); settings: any investigated luminal concentration: SDS 5 mg/mL; caprate 5, 10, 20 mg/mL
Method: (§3) In short, male Wistar Han rats (strain 273) from Charles River Co. (Cologne, Germany), weight 270–363 g, were used. On the study day, the rats were anesthetized using an intraperitoneal injection of a 5% w/v thiobutabarbital solution (180 mg/kg). Body temperature was maintained at 37.5 ± 0.5 °C. To validate the condition of the animal, the systemic arterial blood pressure was continuously recorded by connecting the arterial catheter to a transducer operating a PowerLab system (AD Instruments, Hastings, UK).
as §1
(§4) Each perfusate experiment was divided into two parts. […] The 10 and 20 mg/mL concentrations (suspensions) were used to evaluate if concentrations above saturation had any impact on membrane permeability.
(§5) The five experiments were designed such that each rat was its own control. The experimental period started with a rapid filling (<30 s) of the whole segment with the perfusate (about 1.5 mL for a 10 cm segment). The intestinal segment and perfusates were kept at 37 °C, and all outgoing perfusate was collected and weighed at 15-min intervals.
(§6) In short, an input rate was acquired by deconvolution of the plasma concentration–time profiles following the intestinal perfusion. […] From the input rate, an absorption rate was then calculated by compensating for first-pass extraction (Ffirstpass) of each compound in the rat intestine and liver. […] Plasma CL values were derived from the two-compartment analysis of the intravenous plasma data and an assumed rat liver blood flow of 47 mL/min/kg [24]. The Peff (cm/s) was then calculated by relating the absorption rate to the intestinal luminal area using Equation (2):(2) Peff=absorption rate/A × C where A is the area of the exposed intestinal segment described as a smooth cylinder with a radius of 0.2 cm and C is the concentration entering the luminal segment. Peff was evaluated from 0 to 135 min, and the mean Peff value of the two perfusion periods (60-min control and 75-min test) was regarded as representative for each individual rat.
as §2

[4] = rat, in vivo, iv
Method: (§7) Blood samples of <0.3 mL were collected from the femoral artery for a maximum volume of 4 mL during each experiment. All sampled blood volumes were replaced by an equivalent volume of saline (0.9% NaCl) containing 70 mg/mL bovine serum albumin. For the intravenous administration, blood was sampled over 6 h (at 5, 10, 20, 40, 60, 90 min and at 2, 4, and 6 h). […] The blood samples were put on ice and centrifuged (5000× g, 3 min at 4 °C) within 10 min of sampling; 100 μL of the plasma was transferred to 0.5 mL micro tubes and stored at −80 °C until analysis.
(§8) Plasma CL values were derived from the two-compartment analysis of the intravenous plasma data and an assumed rat liver blood flow of 47 mL/min/kg [24].
(§9) The plate was vortex-mixed for 10 min (pulse 1200) after which it was centrifuged for 10 min at 2862× g. The supernatants were then injected into the UHPLC-MS/MS system. The column used was an Acquity UPLC Peptide BEH C18 (50 × 2.1 mm length × inner diameter, 1.7 µm particle size) from Waters Corp. (Milford, MA, USA). The mobile phase consisted of (A) 0.1% formic acid in water and (B) 0.1% formic acid in acetonitrile. Gradient elution was initially 2.0% B for 0.50 min, with a linear increase to 90% B for 1.5 min, held constant at 90% B for 0.30 min, then back to 2.0% B in 0.30 min, and constant again at 2.0% B for 0.40 min. The total run time was 3.0 min.

[5] = rat
Method: as §3, §1, §4, §5, §6, §2

[6] = rat, in vivo, iv; remark: listed apart in the source
Method: as §7, §8, §9

[7] = test system: jejunal segment; settings: rat
Method: as §3, §1, §4, §5, §6, §2

[8] = cited from earlier work; for Log D6.5: pH 6.5; for Log D7.4: pH 7.4
[9] = test system: rat liver; settings: in vivo; cited from earlier work
[10] = test system: serine protease; design: method as in PMID 9643439, PMID 11578108; settings: rat, pefabloc SC at 0.3 mg/mL; cited from earlier work
[11] = test system: Caco-2 model; design: method as in PMID 11578108; settings: cited from earlier work
[12] = test system: colonic; settings: cited from earlier work
[13] = test system: intestinal lumen; design: method as in PMID 29758344; settings: caprate dose of 11.4 mg/mL, formulation pH 6.5 and 7.4; cited from earlier work
[14] = dog, in vivo, po, 600 mg; cited from earlier work
[15] = in vivo; settings: rat, iv
Method: as §7, §8, §9

[16] = Single-pass intestinal perfusion (SPIP), jejunal lumen-to-blood effective permeability (Peff); settings: male, Wistar Han, rat, other: single-pass jejunal perfusion
Method: as §3, §1, §4, §5, §6, §2

[17] = n-octanol-water, source not given

## O=C([O-])CN(CCN(CC(=O)[O-])CC(=O)[O-])CC(=O)[O-].[51Cr+3] [^51Cr-EDTA, ^51Chromium-labeled ethylenediaminetetraacetate]
[1]; control solution, mean ± SD, n = 24
  CLCr-EDTA (blood-to-lumen clearance): 0.092 ± 0.039 mL/min/100 g

## CCCCCCCCCCCCOS(=O)(=O)[O-].[Na+] [SDS, sodium dodecyl sulfate]
[2]; SDS at 5 mg/mL, pH 6.5 vs. 7.4
  pH dependence of the effect on the permeability of enalaprilat and CLCr-EDTA: unaffected by pH
[2]; SDS at 5 mg/mL, rat SPIP
  increase of absorption of atenolol: 10 fold
  increase of absorption of enalaprilat: 40 fold
  increase of absorption of ketoprofen: not at all
[2]; SPIP model, acyclovir, atenolol, enalaprilat, phenol red
  effect on lumen-to-blood transport of four low permeation model compounds and on CLCr-EDTA: increase the lumen-to-blood transport
[2]; rat SPIP, SDS at 5 mg/mL
  effect on permeation of small model drugs: increases permeation in both absorptive and secretory directions
[1]; permeation enhancer at 5 mg/mL, pH 7.4, solution
  CLCr-EDTA ratio (test vs. control period): significant increase
[3]
  effect on hexarelin absorption (Peff ratio of hexarelin): Neither SDS nor caprate at any of the investigated luminal concentrations enhanced absorption

## Cc1[nH]c2ccccc2c1C[C@@H](NC(=O)[C@@H](N)Cc1cnc[nH]1)C(=O)N[C@@H](C)C(=O)N[C@@H](Cc1c[nH]c2ccccc12)C(=O)N[C@H](Cc1ccccc1)C(=O)N[C@@H](CCCCN)C(N)=O [hexarelin] (H-H[dTrp(2-Me)]AW[dF]K-NH2)
[4]
  clearance: 10.3 mL/min
[5]
  Papp: 0.19 ± 0.14 ×10⁻⁶ cm/s
[6]
  C1 (intercept of first term): 355.2 (416.9/293.5) nM
  C2 (intercept of second term): 133.7 (149.1/118.3) nM
  λ1 (slope of first term): 13.7 (17.5/10.0) h^−1
  λ2 (slope of second term): 2.08 (2.26/1.91) h^−1
[7]
  permeability at pH 6.5 compared to pH 7.4: lower at pH 6.5 compared to pH 7.4
[8]
  Log D6.5: −3.40
  Log D7.4: −2.26
[9]
  Ffirstpass (first-pass extraction): 0.63

## CC(C(=O)O)c1cccc(C(=O)c2ccccc2)c1 (centres unmarked) [ketoprofen]
[2]; rat SPIP
  basal permeability: 0.00016 cm/s

## Cl.NCCc1ccc(S(=O)(=O)F)cc1 [pefabloc SC]
[10]
  inhibition of intestinal degradation of hexarelin: completely inhibits

## CCCCCCCCCC(=O)[O-].[Na+] [caprate, sodium caprate]
[11]
  increase of apparent permeability of hexarelin: over 200 fold
[12]; 4 mg/mL caprate, rectal perfusion study
  effect of caprate when pH was increased from 6.5 to 7.4: increased
[12]
  human colonic Peff: 1.4 ± 0.4 × 10^−4 cm/s
[2]; caprate at 2 mg/mL, rat jejunal SPIP
  absorption-enhancing effect on small low permeability model compounds: did not observe any absorption-enhancing effect
[2]; rat SPIP model
  effective caprate concentrations: 4 to 20 mg/mL
[2]; rat SPIP, SDS at 5 mg/mL
  effect on permeation of small model drugs: does not
[13]
  absorption-enhancing effect: no effect

## semaglutide
[14]
  bioavailability: 0.29%

## C[C@H](N[C@@H](CCc1ccccc1)C(=O)O)C(=O)N1CCC[C@H]1C(=O)O [enalaprilat]
[6]
  C1 (intercept of first term): 428.6 (449.1/408.0) nM
  C2 (intercept of second term): 87.7 (105.5/70.0) nM
  λ1 (slope of first term): 3.9 (4.6/3.3) h^−1
  λ2 (slope of second term): 0.38 (0.45/0.31) h^−1
[2]; rat SPIP
  basal permeability: 1.1e-06 cm/s
[15]
  clearance: 3 mL/min
[8]; [17]
  Log D6.5: −1.0
  Log D7.4: −1.0
[16]
  Papp at 100 µM: 1.3 ± 0.9 ×10⁻⁶ cm/s
